Converted amounts (≈) assume the structure as drawn.
Tests used:
Assay in all cases: ≥ marks a high value that may be exact or a test limit, other limits are often not marked, values filed in µg/mL are converted to µM
[1] = test system: Bacillus megaterium ATCC 10778
[2] = test system: Bacillus subtilis ATCC 6633
Candida albicans MDM8 = test system: Candida albicans MDM8
[3] = test system: Candida tropicalis IOC 4560
[4] = test system: Enterobacter cloacae beta-12
Escherichia coli SBS 363 = test system: Escherichia coli SBS 363
Micrococcus luteus A270 = test system: Micrococcus luteus A270
[5] = test system: Pseudomonas aeruginosa ATCC 27853
[6] = test system: Serratia marcescens ATCC 4112
[7] = test system: Staphylococcus aureus ATCC 29213
[8] = test system: Staphylococcus epidermidis ATCC 12228
Candida albicans = test system: Candida albicans
Escherichia coli MG1655 = test system: Escherichia coli MG1655
[9] = test system: Pseudomonas aeruginosa PAO1
[10] = test system: Staphylococcus aureus ATCC 25923
[11] = test system: Pseudomonas aeruginosa H1001

Row | MIC [1] [µM] | MIC (Candida albicans MDM8) [µM] | MIC [3] [µM] | MIC [4] [µM] | MIC (Escherichia coli SBS 363) [µM] | MIC (Micrococcus luteus A270) [µM] | MIC [6] [µM] | MIC [7] [µM] | MIC (Candida albicans) [µM] | MIC (Escherichia coli MG1655) [µM] | MIC [9] [µM] | MIC [10] [µM] | SMILES | also measured
1 |  |  |  |  |  |  |  |  | > 128 | ≥ 128 | > 128 | > 128 | CSCC[C@H](NC(=O)[C@@H](NC(=O)[C@H](CCCCN)NC(=O)[C@H](Cc1cnc[nH]1)NC(=O)[C@H](CC(C)C)NC(=O)CN)C(C)C)C(=O)N[C@@H](CCCN=C(N)N)C(=O)N[C@@H](CCC(=O)O)C(=O)N[C@H](C(=O)N[C@@H](CC(C)C)C(=O)NCC(=O)N[C@@H](Cc1ccc(O)cc1)C(N)=O)C(C)C [GLHKVMREVLGY] | 
2 |  |  |  |  |  |  |  |  | > 128 | ≥ 128 | > 128 | > 128 | CSCC[C@H](NC(=O)[C@@H](NC(=O)[C@@H](N)CCCCN)C(C)C)C(=O)N[C@@H](CCCN=C(N)N)C(=O)N[C@@H](CCC(=O)O)C(=O)N[C@H](C(=O)N[C@@H](CC(C)C)C(=O)NCC(=O)N[C@@H](Cc1ccc(O)cc1)C(=O)N[C@@H](CCC(=O)O)C(=O)N[C@@H](CCCN=C(N)N)C(=O)N[C@@H](CC(N)=O)C(=O)N[C@@H](CO)C(=O)N[C@@H](Cc1ccc(O)cc1)C(=O)N[C@@H](CCCCN)C(N)=O)C(C)C [KVMREVLGYERNSYK] | 

Second part, the compound before the results:

Row | SMILES | MIC [1] [µM] | MIC (Candida albicans MDM8) [µM] | MIC [3] [µM] | MIC [4] [µM] | MIC (Escherichia coli SBS 363) [µM] | MIC (Micrococcus luteus A270) [µM] | MIC [6] [µM] | MIC [7] [µM] | MIC (Candida albicans) [µM] | MIC (Escherichia coli MG1655) [µM] | MIC [9] [µM] | MIC [10] [µM] | also measured
3 | CC(C)C[C@H](NC(=O)[C@H](C)NC(=O)CNC(=O)[C@H](CC(C)C)NC(=O)[C@@H](N)Cc1ccccc1)C(=O)N[C@@H](Cc1c[nH]c2ccccc12)C(=O)N[C@@H](CC(N)=O)C(=O)N1CCC[C@H]1C(=O)N[C@@H](C)C(=O)N[C@@H](CCCCN)C(=O)N[C@@H](CO)C(=O)N[C@H](C(=O)N[C@@H](Cc1ccccc1)C(N)=O)C(C)C [FLGALWNPAKSVF] | ≥ 50 | ≥ 50 | ≥ 50 | ≥ 50 | ≥ 50 | 25 (≈ 36.2 µg/mL) | 12.5 (≈ 18.1 µg/mL) | > 50 |  |  |  |  | MIC [2]: ≥ 50 µM; MIC [5]: > 50 µM
4 | CC(C)C[C@H](NC(=O)[C@H](C)NC(=O)[C@H](CCCCN)NC(=O)[C@H](CC(C)C)NC(=O)[C@@H](N)Cc1ccccc1)C(=O)N[C@@H](Cc1c[nH]c2ccccc12)C(=O)N[C@@H](CCCCN)C(=O)N[C@H](C(=O)N[C@@H](C)C(=O)N[C@@H](CCCCN)C(=O)N[C@@H](CO)C(=O)N[C@H](C(=O)N[C@@H](Cc1ccccc1)C(N)=O)C(C)C)C(C)C [FLKALWKVAKSVF] | 0.4 (≈ 0.614 µg/mL) | 1.6 (≈ 2.46 µg/mL) | 0.8 (≈ 1.23 µg/mL) | 3.1 (≈ 4.76 µg/mL) | 1.6 (≈ 2.46 µg/mL) | 0.4 (≈ 0.614 µg/mL) | 0.1 (≈ 0.154 µg/mL) | 0.8 (≈ 1.23 µg/mL) |  |  |  |  | MIC [8]: 3.1 µM (≈ 4.76 µg/mL)
5 | CSCC[C@H](NC(=O)[C@@H](NC(=O)[C@H](CCCCN)NC(=O)[C@H](Cc1cnc[nH]1)NC(=O)[C@H](CC(C)C)NC(=O)CN)C(C)C)C(=O)N[C@@H](CCCN=C(N)N)C(=O)N[C@@H](CCCCN)C(=O)N[C@H](C(=O)N[C@@H](CC(C)C)C(=O)NCC(=O)N[C@@H](Cc1ccc(O)cc1)C(=O)N[C@@H](CC(C)C)C(=O)N[C@@H](CCCN=C(N)N)C(=O)N[C@@H](CC(N)=O)C(=O)N[C@H](C(=O)N[C@@H](Cc1ccc(O)cc1)C(=O)N[C@@H](CCCCN)C(N)=O)C(C)C)C(C)C [GLHKVMRKVLGYLRNVYK] |  |  |  |  |  |  |  |  | 8 (≈ 17.4 µg/mL) | 1 (≈ 2.17 µg/mL) | 8 (≈ 17.4 µg/mL) | 8 (≈ 17.4 µg/mL) | 
6 | CC[C@H](C)[C@H](NC(=O)[C@H](CCCN=C(N)N)NC(=O)[C@H](CCCN=C(N)N)NC(=O)[C@@H]1CCCN1C(=O)[C@H](Cc1ccc(O)cc1)NC(=O)[C@H](CCCN=C(N)N)NC(=O)[C@@H]1CCCN1C(=O)[C@H](CCCN=C(N)N)NC(=O)[C@@H]1CCCN1C(=O)[C@H](CC(C)C)NC(=O)[C@H](Cc1ccc(O)cc1)NC(=O)[C@@H]1CCCN1C(=O)[C@@H]1CCCN1C(=O)[C@H](CCCCN)NC(=O)[C@H](CC(=O)O)NC(=O)[C@@H](N)C(C)C)C(=O)N[C@@H](Cc1ccc(O)cc1)C(=O)N[C@@H](CC(N)=O)C(=O)N[C@@H](CCCN=C(N)N)C(=O)NCC(=O)O [VDKPPYLPRPRYPRRIYNRG] |  |  |  |  |  |  |  |  |  |  |  |  | MIC [11]: 0.0597 µM (≈ 0.15 µg/mL)
